System: participants with SCD
Assay: Preliminary blood analysis of SCD patients given oral Compound I, 300 mg QD for 14 days then 200 mg QD through Week 12 (Part A Sub Study 2);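 for Bilirubin total: values in mg/dL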
Assay type: in vivo, human
Conditions: for Bilirubin total: Day 0 (screening) 4.84
Experimental: Part A of this study is a Phase 2 randomized, open-label, dose-finding study in approximately 60 adult participants with SCD. The primary objective of Part A of this study is to assess the effects of Compound I in adult participants with SCD as measured by change in hemoglobin.
Participants are screened for eligibility in the study from Day −28 through Day −1. Eligible participants are randomized on Day 1 based on a 1:1 (100 mg: 150 mg) allocation and will receive their initial dose (loading dose) of Compound I. After completion of Day 1 assessments and subsequent loading doses, participants will continue with administration of their maintenance dose daily through Week 12.
Some newly enrolled participants in Part A will receive a loading dose regimen of 300 mg of Compound I once daily over the first 14 days. Participants will then receive 200 mg once daily maintenance doses through Week 12.

`O=Cc1c(O)cccc1OC[C@@H]1COCCN1C(=O)c1cccnc1CCO` [Compound I, (S)-2-hydroxy-6-((4-(2-(2-hydroxyethyl)nicotinoyl)morpholin-3-yl)methoxy)benzaldehyde] was tested, and the “Hematocrit (HCT)” value (Patient B, Day 43, Day 0 (screening) 23.5) was 45.4%, the “Aspartate Aminotransferase (AST)” value (Patient B, Day 43, Day 0 (screening) 41.1) was 27.1 IU/L and the Alkaline phosphatase (Patient B, Day 43, Day 0 (screening) 49.3) was 67.6 IU/L. The Platelet count (Patient B, Day 43, Day 0 (screening) 360) was 260 K/μL, the “Lactate dehydrogenase (LDH)” value (Patient B, Day 43, Day 0 (screening) 371) was 151 IU/L and the Bilirubin direct (Patient B, Day 57, Day 0 (screening) 0.18) was 0.18 mg/dL. For the same compound, the Bilirubin indirect (Patient B, Day 57, Day 0 (screening) 4.66) was 0.39 mg/dL, the Bilirubin total (Patient B, Day 57) was 0.57 mg/dL and the Absolute neutrophil (Patient B, Day 57, Day 0 (screening) 6.9) was 5.5 K/μL. For the same compound, the “Hemoglobin (HGB)” value (Patient B, Day 57, Day 0 (screening) 8.3) was 14.3 g/dL, the Reticulocytes (Patient B, Day 57, Day 0 (screening) 11.5) was 0.9% and the “Alanine Aminotransferase (ALT)” value (Patient B, Day 57, Day 0 (screening) 22.0) was 17.9 IU/L. The “Hematocrit (HCT)” value (Patient B, Day 57, Day 0 (screening) 23.5) was 42.6%, the “Aspartate Aminotransferase (AST)” value (Patient B, Day 57, Day 0 (screening) 41.1) was 26.2 IU/L and the Alkaline phosphatase (Patient B, Day 57, Day 0 (screening) 49.3) was 69.6 IU/L. For the same compound, the Platelet count (Patient B, Day 57, Day 0 (screening) 360) was 290 K/μL, the “Lactate dehydrogenase (LDH)” value (Patient B, Day 57, Day 0 (screening) 371) was 152 IU/L and the Bilirubin direct (Patient B, Day 85, Day 0 (screening) 0.18) was under 0.01 mg/dL. The Bilirubin total (Patient B, Day 85) was 0.94 mg/dL, the Absolute neutrophil (Patient B, Day 85, Day 0 (screening) 6.9) was 5.6 K/μL and the “Hemoglobin (HGB)” value (Patient B, Day 85, Day 0 (screening) 8.3) was 14.9 g/dL. For the same compound, the Reticulocytes (Patient B, Day 85, Day 0 (screening) 11.5) was 1.1%, the “Alanine Aminotransferase (ALT)” value (Patient B, Day 85, Day 0 (screening) 22.0) was 20.0 IU/L and the “Hematocrit (HCT)” value (Patient B, Day 85, Day 0 (screening) 23.5) was 43.7%. The “Aspartate Aminotransferase (AST)” value (Patient B, Day 85, Day 0 (screening) 41.1) was 27.1 IU/L, the Alkaline phosphatase (Patient B, Day 85, Day 0 (screening) 49.3) was 72.6 IU/L and the Platelet count (Patient B, Day 85, Day 0 (screening) 360) was 256 K/μL. For the same compound, the “Lactate dehydrogenase (LDH)” value (Patient B, Day 85, Day 0 (screening) 371) was 141 IU/L, the Bilirubin direct (Patient C, Day 1, Day 0 (screening) 0.58) was 0.58 mg/dL and the Bilirubin indirect (Patient C, Day 1, Day 0 (screening) 4.26) was 4.87 mg/dL. The Bilirubin total (Patient C, Day 1) was 5.45 mg/dL, the “Alanine Aminotransferase (ALT)” value (Patient C, Day 1, Day 0 (screening) 20.0) was 24.8 IU/L and the “Aspartate Aminotransferase (AST)” value (Patient C, Day 1, Day 0 (screening) 48.0) was 62.0 IU/L. For the same compound, the Alkaline phosphatase (Patient C, Day 1, Day 0 (screening) 52.4) was 51.4 IU/L, the “Lactate dehydrogenase (LDH)” value (Patient C, Day 1, Day 0 (screening) 533) was 691 IU/L and the Bilirubin direct (Patient C, Day 8, Day 0 (screening) 0.58) was 0.38 mg/dL. The Absolute neutrophil (Patient C, Day 8, Day 0 (screening) 0.8) was 6.7 K/μL, the Bilirubin indirect (Patient C, Day 8, Day 0 (screening) 4.26) was 3.85 mg/dL and the Bilirubin total (Patient C, Day 8) was 4.23 mg/dL. For the same compound, the “Hemoglobin (HGB)” value (Patient C, Day 8, Day 0 (screening) 7.1) was 9.1 g/dL, the Reticulocytes (Patient C, Day 8, Day 0 (screening) 13.7) was 9.9% and the “Alanine Aminotransferase (ALT)” value (Patient C, Day 8, Day 0 (screening) 20.0) was 28.9 IU/L. The “Hematocrit (HCT)” value (Patient C, Day 8, Day 0 (screening) 21.0) was 25.9%, the “Aspartate Aminotransferase (AST)” value (Patient C, Day 8, Day 0 (screening) 48.0) was 57.0 IU/L and the Alkaline phosphatase (Patient C, Day 8, Day 0 (screening) 52.4) was 61.5 IU/L. The Platelet count (Patient C, Day 8, Day 0 (screening) 392) was 405 K/μL, the “Lactate dehydrogenase (LDH)” value (Patient C, Day 8, Day 0 (screening) 533) was 545 IU/L and the Bilirubin direct (Patient C, Day 15, Day 0 (screening) 0.58) was 0.38 mg/dL. It also gave an Absolute neutrophil (Patient C, Day 15, Day 0 (screening) 0.8) of 3.9 K/μL, a Bilirubin indirect (Patient C, Day 15, Day 0 (screening) 4.26) of 3.12 mg/dL and a Bilirubin total (Patient C, Day 15) of 3.50 mg/dL. The “Hemoglobin (HGB)” value (Patient C, Day 15, Day 0 (screening) 7.1) was 10.2 g/dL, the Reticulocytes (Patient C, Day 15, Day 0 (screening) 13.7) was 5.0% and the “Alanine Aminotransferase (ALT)” value (Patient C, Day 15, Day 0 (screening) 20.0) was 18.6 IU/L. The “Hematocrit (HCT)” value (Patient C, Day 15, Day 0 (screening) 21.0) was 29.8%, the “Aspartate Aminotransferase (AST)” value (Patient C, Day 15, Day 0 (screening) 48.0) was 34.1 IU/L and the Alkaline phosphatase (Patient C, Day 15, Day 0 (screening) 52.4) was 54.4 IU/L. The Platelet count (Patient C, Day 15, Day 0 (screening) 392) was 482 K/μL, the “Lactate dehydrogenase (LDH)” value (Patient C, Day 15, Day 0 (screening) 533) was 327 IU/L and the Bilirubin direct (Patient C, Day 29, Day 0 (screening) 0.58) was 0.38 mg/dL. It also gave an Absolute neutrophil (Patient C, Day 29, Day 0 (screening) 0.8) of 2.6 K/μL, a Bilirubin indirect (Patient C, Day 29, Day 0 (screening) 4.26) of 2.51 mg/dL and a Bilirubin total (Patient C, Day 29) of 2.89 mg/dL. For the same compound, the “Hemoglobin (HGB)” value (Patient C, Day 29, Day 0 (screening) 7.1) was 11.6 g/dL, the Reticulocytes (Patient C, Day 29, Day 0 (screening) 13.7) was 1.8% and the “Alanine Aminotransferase (ALT)” value (Patient C, Day 29, Day 0 (screening) 20.0) was 17.2 IU/L. For the same compound, the “Hematocrit (HCT)” value (Patient C, Day 29, Day 0 (screening) 21.0) was 33.9%, the “Aspartate Aminotransferase (AST)” value (Patient C, Day 29, Day 0 (screening) 48.0) was 39.1 IU/L and the Alkaline phosphatase (Patient C, Day 29, Day 0 (screening) 52.4) was 51.4 IU/L. The Platelet count (Patient C, Day 29, Day 0 (screening) 392) was 357 K/μL, the “Lactate dehydrogenase (LDH)” value (Patient C, Day 29, Day 0 (screening) 533) was 256 IU/L and the Bilirubin direct (Patient C, Day 43, Day 0 (screening) 0.58) was 0.28 mg/dL. For the same compound, the Absolute neutrophil (Patient C, Day 43, Day 0 (screening) 0.8) was 1.0 K/μL, the Bilirubin indirect (Patient C, Day 43, Day 0 (screening) 4.26) was 4.44 mg/dL and the Bilirubin total (Patient C, Day 43) was 4.72 mg/dL. For the same compound, the “Hemoglobin (HGB)” value (Patient C, Day 43, Day 0 (screening) 7.1) was 10.5 g/dL, the Reticulocytes (Patient C, Day 43, Day 0 (screening) 13.7) was 2.8% and the “Alanine Aminotransferase (ALT)” value (Patient C, Day 43, Day 0 (screening) 20.0) was 26.8 IU/L. For the same compound, the “Hematocrit (HCT)” value (Patient C, Day 43, Day 0 (screening) 21.0) was 30.1%, the “Aspartate Aminotransferase (AST)” value (Patient C, Day 43, Day 0 (screening) 48.0) was 46.1 IU/L and the Alkaline phosphatase (Patient C, Day 43, Day 0 (screening) 52.4) was 58.5 IU/L. For the same compound, the Platelet count (Patient C, Day 43, Day 0 (screening) 392) was 416 K/μL, the “Lactate dehydrogenase (LDH)” value (Patient C, Day 43, Day 0 (screening) 533) was 291 IU/L and the Bilirubin direct (Patient C, Day 57, Day 0 (screening) 0.58) was 0.18 mg/dL. It also gave an Absolute neutrophil (Patient C, Day 57, Day 0 (screening) 0.8) of 4.3 K/μL, a Bilirubin indirect (Patient C, Day 57, Day 0 (screening) 4.26) of 3.44 mg/dL and a Bilirubin total (Patient C, Day 57) of 3.62 mg/dL. The “Hemoglobin (HGB)” value (Patient C, Day 57, Day 0 (screening) 7.1) was 10.4 g/dL, the Reticulocytes (Patient C, Day 57, Day 0 (screening) 13.7) was 4.2% and the “Alanine Aminotransferase (ALT)” value (Patient C, Day 57, Day 0 (screening) 20.0) was 21.3 IU/L. The “Hematocrit (HCT)” value (Patient C, Day 57, Day 0 (screening) 21.0) was 28.9%, the “Aspartate Aminotransferase (AST)” value (Patient C, Day 57, Day 0 (screening) 48.0) was 46.1 IU/L and the Alkaline phosphatase (Patient C, Day 57, Day 0 (screening) 52.4) was 56.4 IU/L. For the same compound, the Platelet count (Patient C, Day 57, Day 0 (screening) 392) was 413 K/μL, the “Lactate dehydrogenase (LDH)” value (Patient C, Day 57, Day 0 (screening) 533) was 296 IU/L and the Bilirubin direct (Patient C, Day 85, Day 0 (screening) 0.58) was under 0.01 mg/dL. For the same compound, the Absolute neutrophil (Patient C, Day 85, Day 0 (screening) 0.8) was 4.9 K/μL, the Bilirubin total (Patient C, Day 85) was 3.62 mg/dL and the “Hemoglobin (HGB)” value (Patient C, Day 85, Day 0 (screening) 7.1) was 10.0 g/dL. The Reticulocytes (Patient C, Day 85, Day 0 (screening) 13.7) was 5.9%, the “Alanine Aminotransferase (ALT)” value (Patient C, Day 85, Day 0 (screening) 20.0) was 20.6 IU/L and the “Hematocrit (HCT)” value (Patient C, Day 85, Day 0 (screening) 21.0) was 28.2%. For the same compound, the “Aspartate Aminotransferase (AST)” value (Patient C, Day 85, Day 0 (screening) 48.0) was 39.1 IU/L, the Alkaline phosphatase (Patient C, Day 85, Day 0 (screening) 52.4) was 55.4 IU/L and the Platelet count (Patient C, Day 85, Day 0 (screening) 392) was 457 K/μL. For the same compound, the “Lactate dehydrogenase (LDH)” value (Patient C, Day 85, Day 0 (screening) 533) was 276 IU/L.
